From patent EP4703358A1, “BENZO SIX-MEMBERED HETEROCYCLIC GSPT1 PROTEIN DEGRADATION AGENT AND USE THEREOF” (China Pharmaceutical University, priority 2023, dated 2024)

Legend:
GSPT1 protein = molecular target: T1, GSPT1 protein (Homo sapiens, UniProt P15170+Q96SW2); assay: Degradation of GSPT1 in KG-1 cells (Western blot); type: cell-based; details: KG-1 cells, compound concentration 200 nM, 4 hours
T1 construct: host or cells: KG-1 cells
Protocol: KG-1 cells (ATCC) were grown in an IMDM culture medium (containing 20% FBS). After centrifugation and counting, the cell concentration was adjusted. The cells were plated onto 6-well plates at 10^6 cells/well, with 1350 µL per well. 150 µL of DMSO and the test compounds of the present disclosure (compound concentration: 200 nM) were added. The plates were incubated in an incubator at 37 °C with 5% CO2 for 4 hours. The cells were centrifuged, and the culture medium was discarded. PBS was added to wash the cells and then discarded. Whole cell lysates were prepared using a protease inhibitor cocktail (100×, Fude Biological), a protein phosphatase inhibitor cocktail (100×, Fude Biological), SuperNuclease (Beyotime), and a high-intensity RIPA lysis buffer (Thermo Fisher) and placed on ice for 30 minutes. After centrifugation, the cell debris precipitates were discarded, and the whole cell lysate supernatants were collected and transferred to new centrifuge tubes. After a BCA protein assay, samples were prepared using a 5× loading buffer (Thermo Fisher). The samples were subjected to protein electrophoresis separation in a 4-20% precast gel (SDS-PAGE gel), transferred to a PVDF membrane, then blocked with 5% NFDM/TBST at room temperature for 1 hour, incubated overnight with primary antibodies at 4 °C, and incubated with a secondary antibody at room temperature for 2 hours the next day. Signals were detected using a MINICHEMITM imaging system.
Primary antibodies: • Anti-GSPT1: Abcam ab234433 • Anti-beta actin: Fude Biological FD0060
Secondary antibody: Anti-rabbit peroxidase-linked secondary antibody: Fude Biological FDG007
The degradation effects of the compounds on GSPT1 protein are shown in Table 1, where A represents a GSPT1 protein degradation percentage of no less than 80%, B represents a degradation percentage of less than 80% but no less than 50%, C represents a degradation percentage of less than 50% but no less than 25%, and D represents a degradation percentage of less than 25%. Table 1. The degradation of GSPT1 protein by compounds

KG-1 cells = assay: Antiproliferative activity against KG-1 cells (CCK8); type: cell-based; details: Homo sapiens, 72 hours
Protocol: KG-1 cells in the logarithmic growth phase were diluted in a culture medium (RPMI + 10% FBS) and plated onto 96-well plates at 5000 cells/well, and the plates were incubated in an incubator at 37 °C with 5% CO2 for 24 hours. 10 mM stock solutions of the test compounds of the present disclosure in DMSO were prepared and diluted with the culture medium to set 9 concentration gradients. Three replicate wells were set for each concentration. After compound addition, the plates were incubated in an incubator at 37 °C with 5% CO2 for 72 hours. The cell proliferation was assessed using the CCK8 method. The cell growth inhibition IC50 values of the compounds were determined using an enzyme labeling method. The IC50 values were calculated using GraphPad Prism 7 software.
The antiproliferative activity of the compounds against KG-1 cells is shown in Table 2, where A represents IC50 < 1 nM, B represents 1 ≤ IC50 < 10 nM, C represents 10 nM ≤ IC50 < 100 nM, D represents 100 nM ≤ IC50 < 1000 nM, and E represents IC50 ≥ 1000 nM. Table 2. The antiproliferative activity of compounds against KG-1 cells

U937 = assay: Antiproliferative activity against tumor cells (CCK8), U937; type: cell-based; details: Homo sapiens, U-937, 72 hours
Protocol: (§1) U937, MOLM-13, and MV4-11 cells (ATCC) in the logarithmic growth phase were separately diluted in a culture medium and plated onto 96-well plates at 5000 cells/well, and the plates were incubated in an incubator at 37 °C with 5% CO2 for 24 hours. 10 mM stock solutions of the compounds in DMSO were prepared and diluted with the culture medium to set 9 concentration gradients. Three replicate wells were set for each concentration. After compound addition, the plates were incubated in an incubator at 37 °C with 5% CO2 for 72 hours. The cell proliferation was assessed using the CCK8 method. The cell growth inhibition IC50 values of the compounds were determined using an enzyme labeling method. The IC50 values were calculated using GraphPad Prism 7 software.
(§2) The antiproliferative activity of the compounds against the tumor cells is shown in Table 3, where A represents IC50 < 1 nM, B represents 1 ≤ IC50 < 10 nM, C represents 10 nM ≤ IC50 < 100 nM, D represents 100 nM ≤ IC50 < 1000 nM, and E represents IC50 ≥ 1000 nM. Table 3. The antiproliferative activity of compounds against tumor cells

MOLM-13 = assay: Antiproliferative activity against tumor cells (CCK8), MOLM-13; type: cell-based; details: Homo sapiens, MOLM-13 cells, 72 hours
Protocol: as §1, §2

MV4-11 = assay: Antiproliferative activity against tumor cells (CCK8), MV4-11; type: cell-based; details: Homo sapiens, MV4-11 cells, 72 hours
Protocol: as §1, §2

[1] = Metabolic stability in in vitro rat liver microsomes; details: for half-life / microsomal CLint: rat
Protocol: 10 mM stock solutions of the test compounds in DMSO were prepared, diluted with acetonitrile and then with PBS, and vortexed, with the DMSO content controlled at 0.1%. The dilute working solutions (10 µL) were incubated with 65 µL of a liver microsome system (30 µL of 100 mM PBS, 25 µL of 20 mM MgCl2, and 10 µL of 5 mg/mL RLMs) and preheated at 37 °C for 5 min. 25 µL of 4 mM NADPH was added to start a reaction. Samples were taken at different time points (0 min, 5 min, 15 min, 30 min, 60 min, and 120 min), and an acetonitrile solution containing an internal standard was added to stop the reaction. After vortexing and centrifugation, the supernatants were collected and analyzed by LC-MS/MS, and the half-lives and clearance rates were calculated.

[2] = tested on: human leukemia cells MV411; assay: In vivo pharmacodynamic study in MV411 acute myeloid leukemia xenograft mouse model; parameters: species or system BABL/c Nude mouse
Protocol: The human leukemia cells MV411 (Cell Bank, Chinese Academy of Sciences) used in this experiment were cultured in an IMDM culture medium supplemented with 10% FBS in an incubator containing CO2 at 37 °C. Before the cells were continuously sub-cultured to the tenth generation, MV411 cells in the logarithmic growth phase were used, and the cell concentration was adjusted to 1 × 10^8 cells/mL with a serum-free culture medium. Each BABL/c Nude mouse (Jiangsu GemPharmatech Co., Ltd., female, 4-6 weeks old, 14-16 g) was inoculated with 100 µL of the cell suspension by subcutaneous injection on the right dorsal side (near the axilla) under sterile conditions. When the mean tumor volume of the tumor-bearing mice reached approximately 100 mm^3, the mice were randomly divided into groups, with the tumor volume in each group being roughly the same. The day of grouping and administration was defined as day 0. The animals in each treatment group were given a compound once daily by oral gavage at 15 mg/kg, 30 mg/kg, or 60 mg/kg. The body weight and tumor volume of the animals were measured every other day.
Experimental indicator: The anti-tumor efficacy of the compounds was evaluated using the relative tumor growth inhibition rate (TGI). Tumor weight TGI (%) = {1 - [(final average tumor weight of experimental group)/(final average tumor weight of control group of tumor-bearing mice without administration)]} × 100%. Tumor volume TGI (%) = [1 - relative tumor volume of experimental group/relative tumor volume of control group of tumor-bearing mice without administration] × 100%.

[3] = In vivo pharmacokinetic study in rats; details: rat; for AUC(0-inf) / AUC(0-t) / C0 / Vd / clearance / half-life / Cmax / Tmax: male, SD, plasma; for F: PO 10mg/kg
Protocol: Sample collection and preparation: After SPF SD rats (male, 210-230 g, 42-48 days, RILD Liver) in a good growth state were dosed intravenously at 2 mg/kg and orally at 10 mg/kg, blood samples were collected via the orbit at different blood collection time points and transferred to centrifuge tubes containing an anticoagulant; the intravenous blood collection time points were 0.08 hours, 0.25 hours, 0.5 hours, 1 hour, 2 hours, 4 hours, 6 hours, 8 hours, and 24 hours, and the oral blood collection time points were 0.25 hours, 0.5 hours, 1 hour, 2 hours, 4 hours, 6 hours, 8 hours, and 24 hours. The blood samples were immediately centrifuged at 4 °C and 8000 rpm for 10 minutes, and the plasma was collected and stored in an ultra-low-temperature freezer at -80 °C until it was analyzed by LC-MS/MS. Pharmacokinetic data analysis: Pharmacokinetic parameters of the compounds were calculated using pharmacokinetic software in a non-compartmental model. The peak plasma concentration (Cmax) and the time to reach the peak plasma concentration (Tmax) were taken as observation values. Parameters such as the half-life T1/2, the areas under the plasma concentration-time curve AUClast and AUCinf, the apparent volume of distribution Vss, and the clearance rate CL were determined through regression analysis of the linear terminal portion of the logarithmic plasma concentration-time curve and the linear trapezoidal rule.

T1 sequence (P15170 whole entry): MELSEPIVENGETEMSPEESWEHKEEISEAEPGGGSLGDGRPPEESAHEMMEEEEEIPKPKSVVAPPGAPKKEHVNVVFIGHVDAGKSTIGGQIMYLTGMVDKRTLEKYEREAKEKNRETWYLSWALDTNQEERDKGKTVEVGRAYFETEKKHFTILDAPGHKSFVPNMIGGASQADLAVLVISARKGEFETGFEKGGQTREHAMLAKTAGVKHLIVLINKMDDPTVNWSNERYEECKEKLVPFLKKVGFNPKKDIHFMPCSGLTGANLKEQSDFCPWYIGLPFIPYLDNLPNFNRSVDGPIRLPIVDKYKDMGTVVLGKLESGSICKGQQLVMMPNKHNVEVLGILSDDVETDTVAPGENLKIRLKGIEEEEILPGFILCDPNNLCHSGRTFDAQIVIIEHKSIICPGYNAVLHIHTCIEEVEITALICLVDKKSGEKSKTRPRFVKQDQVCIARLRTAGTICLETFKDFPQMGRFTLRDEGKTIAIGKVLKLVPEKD
T1 sequence (Q96SW2 whole entry): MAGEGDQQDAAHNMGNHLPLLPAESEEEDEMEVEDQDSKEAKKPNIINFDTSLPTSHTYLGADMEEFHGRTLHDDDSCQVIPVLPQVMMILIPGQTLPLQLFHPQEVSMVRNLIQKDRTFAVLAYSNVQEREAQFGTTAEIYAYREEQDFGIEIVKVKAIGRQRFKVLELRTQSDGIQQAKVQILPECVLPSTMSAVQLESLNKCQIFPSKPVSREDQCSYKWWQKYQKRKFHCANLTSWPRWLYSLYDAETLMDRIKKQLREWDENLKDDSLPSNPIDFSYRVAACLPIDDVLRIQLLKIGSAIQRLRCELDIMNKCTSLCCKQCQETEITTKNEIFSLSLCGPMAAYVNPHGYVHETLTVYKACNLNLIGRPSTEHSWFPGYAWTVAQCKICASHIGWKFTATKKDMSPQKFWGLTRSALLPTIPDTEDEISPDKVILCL
T1 sequence (Q16531 whole entry partner): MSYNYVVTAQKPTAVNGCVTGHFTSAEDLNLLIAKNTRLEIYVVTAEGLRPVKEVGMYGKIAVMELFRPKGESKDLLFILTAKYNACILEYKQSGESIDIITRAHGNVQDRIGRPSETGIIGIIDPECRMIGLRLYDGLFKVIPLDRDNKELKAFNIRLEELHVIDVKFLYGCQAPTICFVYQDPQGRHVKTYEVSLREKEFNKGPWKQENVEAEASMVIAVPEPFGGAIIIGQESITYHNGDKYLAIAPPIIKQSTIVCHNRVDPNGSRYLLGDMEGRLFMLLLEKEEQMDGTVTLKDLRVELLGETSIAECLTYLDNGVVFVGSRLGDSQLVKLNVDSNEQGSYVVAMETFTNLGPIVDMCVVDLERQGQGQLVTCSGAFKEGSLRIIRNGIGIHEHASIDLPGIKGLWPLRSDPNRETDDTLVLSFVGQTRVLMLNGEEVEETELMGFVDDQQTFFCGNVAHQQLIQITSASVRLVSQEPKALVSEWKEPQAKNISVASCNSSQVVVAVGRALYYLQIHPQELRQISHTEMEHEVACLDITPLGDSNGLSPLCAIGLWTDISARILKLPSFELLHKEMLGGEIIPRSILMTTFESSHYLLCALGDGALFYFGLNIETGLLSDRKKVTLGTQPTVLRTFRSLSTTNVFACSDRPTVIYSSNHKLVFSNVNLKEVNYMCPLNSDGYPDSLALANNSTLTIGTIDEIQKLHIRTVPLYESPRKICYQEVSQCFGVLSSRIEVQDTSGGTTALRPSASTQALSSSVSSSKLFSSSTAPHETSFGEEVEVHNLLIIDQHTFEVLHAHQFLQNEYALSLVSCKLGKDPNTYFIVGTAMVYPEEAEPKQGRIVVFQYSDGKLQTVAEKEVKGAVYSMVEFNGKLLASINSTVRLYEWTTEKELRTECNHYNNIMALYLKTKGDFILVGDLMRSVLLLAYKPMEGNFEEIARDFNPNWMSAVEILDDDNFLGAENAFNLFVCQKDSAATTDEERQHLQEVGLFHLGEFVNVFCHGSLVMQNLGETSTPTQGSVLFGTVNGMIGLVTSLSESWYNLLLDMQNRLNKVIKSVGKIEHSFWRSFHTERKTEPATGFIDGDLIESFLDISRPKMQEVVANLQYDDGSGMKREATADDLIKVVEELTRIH

| Structure (SMILES) | percent GSPT1 degradation at 0.2 µM (GSPT1 protein) [%] | IC50 (KG-1 cells) [nM] | IC50 (U937) [nM] | IC50 (MOLM-13) [nM] | IC50 (MV4-11) [nM] | half-life [1] [h] | microsomal CLint [1] [µL/min/mg] | other results |
| --- | --- | --- | --- | --- | --- | --- | --- | --- |
| O=C1CCC(N2Cc3cc(CNC(=O)C4=Cc5cc(F)ccc5OC4)ccc3C2=O)C(=O)N1 (stereo not drawn) [Compound A-3, N-((2-(2,6-Dioxopiperidin-3-yl)-1-oxoisoindolin-5-yl)methyl)-6-fluoro-2H-chromene-3-carboxamide] | > 80 | 10 to 100 | 10 to 100 | 10 to 100 | 10 to 100 | 4.67 | 4.95 |  |
| O=C1CCC(N2Cc3c(ccc(CNC(=O)C4=Cc5cc(OC(F)(F)F)ccc5OC4)c3F)C2=O)C(=O)N1 (stereo not drawn) [Compound A-42, N-((2-(2,6-Dioxopiperidin-3-yl)-4-fluoro-1-oxoisoindolin-5-yl)methyl)-6-(trifluoromethoxy)-2H-chromene-3-carboxamide] | > 80 | 1 to 10 |  |  |  | 3.11 | 7.43 | tumor volume TGI ([2]; 60 mg/kg once daily by oral gavage): 100%; weight loss in mice ([2]; once daily by oral gavage): no significant weight loss; AUC(0-inf) ([3]; iv, 2 mg/kg): 17300 ± 1470 ng·h/mL; AUC(0-t) ([3]; iv, 2 mg/kg): 17200 ± 1500 ng·h/mL; C0 ([3]; iv, 2 mg/kg): 32100 ± 1550 ng/mL; Vd ([3]; iv, 2 mg/kg): 0.14 L/kg; clearance ([3]; iv, 2 mg/kg): 1.9 ± 0.1 mL/min/kg; half-life ([3]; iv, 2 mg/kg): 1.37 ± 0.04 h; AUC(0-inf) ([3]; po, 10 mg/kg): 7190 ng·h/mL; AUC(0-t) ([3]; po, 10 mg/kg): 8380 ± 1280 ng·h/mL; Cmax ([3]; po, 10 mg/kg): 2810 ± 1530 ng/mL; Tmax ([3]; po, 10 mg/kg): 0.66 ± 0.28 h; half-life ([3]; po, 10 mg/kg): 1.71 h; F [3]: 9.8±1.5%; exposure level relative to CC-90009 ([3]; administered orally): four times; plasma drug exposure level relative to CC-90009 ([3]; intravenous injection): fourteen times; in vitro rat liver microsome metabolic half-life relative to CC-90009 ([1]; ratio to the clinical drug CC-90009): more than 2 times |
| O=C1CCC(N2Cc3cc(CNC(=O)C4CCc5ccccc5C4)ccc3C2=O)C(=O)N1 [Compound D-1, N-((2-(2,6-Dioxopiperidin-3-yl)-1-oxoisoindolin-5-yl)methyl)-1,2,3,4-tetrahydronaphthalene-2-carboxamide] | < 25 | ≥ 1000 | ≥ 1000 | ≥ 1000 | ≥ 1000 |  |  |  |
| O=C1CCC(N2Cc3cc(CNC(=O)C4=Cc5ccccc5OC4)ccc3C2=O)C(=O)N1 (stereo not drawn) [Compound A-1, N-((2-(2,6-Dioxopiperidin-3-yl)-1-oxoisoindolin-5-yl)methyl)-2H-chromene-3-carboxamide] | > 80 | 10 to 100 | 1 to 10 | 10 to 100 | 10 to 100 | 6.17 | 3.75 | AUC(0-inf) ([3]; iv, 2 mg/kg): 1920 ± 267 ng·h/mL; AUC(0-t) ([3]; iv, 2 mg/kg): 1900 ± 270 ng·h/mL; C0 ([3]; iv, 2 mg/kg): 3840 ± 226 ng/mL; Vd ([3]; iv, 2 mg/kg): 0.92 ± 0.07 L/kg; clearance ([3]; iv, 2 mg/kg): 17.6 ± 2.6 mL/min/kg; half-life ([3]; iv, 2 mg/kg): 1.38 ± 0.14 h; AUC(0-inf) ([3]; po, 10 mg/kg): 1850 ± 330 ng·h/mL; AUC(0-t) ([3]; po, 10 mg/kg): 1810 ± 343 ng·h/mL; Cmax ([3]; po, 10 mg/kg): 619 ± 42 ng/mL; Tmax ([3]; po, 10 mg/kg): 0.75 ± 0.43 h; half-life ([3]; po, 10 mg/kg): 2.69 ± 1.13 h; F [3]: 19.3±3.4% |
| O=C1CCC(N2Cc3cc(CNC(=O)C4CNc5ccccc5C4)ccc3C2=O)C(=O)N1 (stereo not drawn) [Compound C-1, N-((2-(2,6-Dioxopiperidin-3-yl)-1-oxoisoindolin-5-yl)methyl)-1,2,3,4-tetrahydroquinoline-3-carboxamide] | > 80 | 1 to 10 | 10 to 100 | 10 to 100 | 10 to 100 |  |  |  |
| O=C1CCC(N2Cc3cc(CNC(=O)C4COc5ccccc5C4)ccc3C2=O)C(=O)N1 (stereo not drawn) [Compound B-1, N-((2-(2,6-Dioxopiperidin-3-yl)-1-oxoisoindolin-5-yl)methyl)chromane-3-carboxamide] | > 80 | 10 to 100 | 1 to 10 | 1 to 10 | 1 to 10 | 0.735 | 31.4 |  |
| O=C1CCC(N2Cc3cc(CNC(=O)C4COc5ccc(OC(F)(F)F)cc5C4)ccc3C2=O)C(=O)N1 (stereo not drawn) [Compound B-4, N-((2-(2,6-Dioxopiperidin-3-yl)-1-oxoisoindolin-5-yl)methyl)-6-(trifluoromethoxy)chromane-3-carboxamide] | > 80 | < 1 | 1 to 10 | 1 to 10 | < 1 |  |  |  |
